For two compounds, MIC results are on record in patent EP0347459A1, “CEPHALOSPORIN COMPOUNDS OR THEIR SALTS, PROCESS FOR THEIR PREPARATION, AND PHARMACEUTICAL COMPOSITIONS” (TEIJIN LIMITED, priority 1987, dated 1988).

Format in all cases: cell-based
One test concerns P.aeruginosa N-3. Description: MIC values of 10 kinds of Pseudomonas aeruginosa. As to conditions: N3, 16 h, P.aeruginosa N-3 (Table II), read-out: MIC values. The method, then: (§1) An in vitro antibacterial activity was measured by an agar disc dilution method.
(§2) Varied test bacteria were cultivated overnight in triptophane-soybroth. A Mueller Hinton agar containing the compound of this invention in varied concentrations was streaked with one platinum loopful of each of the bacteria (number of living cells 10^6/ml).
(§3) MIC values of 10 kinds of Pseudomonas aeruginosa were measured for Compound III, Comparative Example B and CAZ.

For the next test, the system named is P.aeruginosa NO. 97. Description: MIC values of 10 kinds of Pseudomonas aeruginosa. The settings on record: 16 h, P.aeruginosa NO. 97 (Table II), read-out: MIC values. The protocol: as §1, §2, §3
Another test deals with P.aeruginosa 0-11. Description: MIC values of 10 kinds of Pseudomonas aeruginosa. As to conditions: Pseudomonas aeruginosa, 011, 16 h; P.aeruginosa 0-11 (Table II); read-out: MIC values. The method, then:
as §1, §2, §3

Another test deals with P.aeruginosa ATCC27577. Briefly: MIC values of 10 kinds of Pseudomonas aeruginosa. The settings on record: 16 h, P.aeruginosa ATCC27577 (Table II), read-out: MIC values. The protocol:
as §1, §2, §3

Another test concerns P.aeruginosa ATCC27318. Briefly: MIC values of 10 kinds of Pseudomonas aeruginosa. The settings on record: 16 h, P.aeruginosa ATCC27318 (Table II), read-out: MIC values. The protocol:
as §1, §2, §3

For a further test, the system named is P.aeruginosa 88. Description: MIC values of 10 kinds of Pseudomonas aeruginosa. As to conditions: Pseudomonas aeruginosa, 16 h; P.aeruginosa 88 (Table II); read-out: MIC values. The protocol: as §1, §2, §3
The next test deals with P.aeruginosa Tid53. Briefly: MIC values of 10 kinds of Pseudomonas aeruginosa. The settings on record: 16 h, P.aeruginosa Tid53 (Table II), read-out: MIC values. The method, then:
as §1, §2, §3

A further test deals with P.aeruginosa 64. Briefly: MIC values of 10 kinds of Pseudomonas aeruginosa. As to conditions: Pseudomonas aeruginosa, 16 h; P.aeruginosa 64 (Table II); read-out: MIC values. The method, then: as §1, §2, §3
The subject of the next test is P.aeruginosa N-2. Briefly: MIC values of 10 kinds of Pseudomonas aeruginosa. As to conditions: N2, 16 h, P.aeruginosa N-2 (Table II), read-out: MIC values. The protocol:
as §1, §2, §3

Another test deals with P.aeruginosa N-26. Briefly: MIC values of 10 kinds of Pseudomonas aeruginosa. As to conditions: N26, 16 h, P.aeruginosa N-26 (Table II), read-out: MIC values. The method, then: as §1, §2, §3
The test system of another test is S.enteritidis G14. Description: In vitro antibacterial activity, agar disc dilution method. The settings on record: Salmonella enterica; S.enteritidis G14; Mueller Hinton agar, 10^6/ml, 37°C for 16 hours; read-out: minimum growth inhibitory concentration (MIC). The method, then:
as §1, §2

In a further test the test system is S.marcescens IAM1184. The description is as above. As to conditions: Serratia marcescens; S.marcescens IAM1184; Mueller Hinton agar, 10^6/ml, 37°C for 16 hours; read-out: minimum growth inhibitory concentration (MIC). The method, then:
as §1, §2

A further test deals with P.aeruginosa PAD1. The test is described as above. The settings on record: Pseudomonas aeruginosa; P.aeruginosa PAD1; Mueller Hinton agar, 10^6/ml, 37°C for 16 hours; read-out: minimum growth inhibitory concentration (MIC). The method, then: as §1, §2
The test system of a further test is P.aeruginosa IFO3445. The test is described as above. As to conditions: Pseudomonas aeruginosa; P.aeruginosa IFO3445; Mueller Hinton agar, 10^6/ml, 37°C for 16 hours; read-out: minimum growth inhibitory concentration (MIC). The protocol:
as §1, §2

The test system of the next test is E.cloacae 963. The description is as above. The settings on record: Enterobacter cloacae; E.cloacae 963; Mueller Hinton agar, 10^6/ml, 37°C for 16 hours; read-out: minimum growth inhibitory concentration (MIC). The protocol:
as §1, §2

The subject of another test is S.aureus 209p NIHJ JC1. The test is described as above. The settings on record: Staphylococcus aureus; S.aureus 209p NIHJ JC1; Mueller Hinton agar, 10^6/ml, 37°C for 16 hours; read-out: minimum growth inhibitory concentration (MIC). The method, then: as §1, §2
In a further test the test system is K.pneumoniae PCI602. The description is as above. The settings on record: Klebsiella pneumoniae; K.pneumoniae PCI602; Mueller Hinton agar, 10^6/ml, 37°C for 16 hours; read-out: minimum growth inhibitory concentration (MIC). The method, then:
as §1, §2

A further test has as its system S.pyogenes Cook. The test is described as above. The settings on record: Streptococcus pyogenes; S.pyogenes Cook; Mueller Hinton agar, 10^6/ml, 37°C for 16 hours; read-out: minimum growth inhibitory concentration (MIC). The protocol:
as §1, §2

The next test relates to M.luteus ATCC9341. Described as above. The settings on record: Micrococcus luteus; M.luteus ATCC9341; Mueller Hinton agar, 10^6/ml, 37°C for 16 hours; read-out: minimum growth inhibitory concentration (MIC). The method, then: as §1, §2
The next test has as its system P.aeruginosa NCTC1049. The description is as above. The settings on record: Pseudomonas aeruginosa; P.aeruginosa NCTC1049; Mueller Hinton agar, 10^6/ml, 37°C for 16 hours; read-out: minimum growth inhibitory concentration (MIC). The method, then:
as §1, §2

The test system of the next test is P.vulgalis OX-11. Described as above. The settings on record: P.vulgalis OX-11; Mueller Hinton agar, 10^6/ml, 37°C for 16 hours; read-out: minimum growth inhibitory concentration (MIC). The method, then:
as §1, §2

The test system of another test is S.typhi 901. The description is as above. As to conditions: Salmonella enterica, 16 h, read-out: minimum growth inhibitory concentration (MIC). The protocol:
as §1, §2

The next test deals with S. aureus Terajima. Described as above. The settings on record: Staphylococcus aureus; S. aureus Terajima; Mueller Hinton agar, 10^6/ml, 37°C for 16 hours; read-out: minimum growth inhibitory concentration (MIC). The protocol:
as §1, §2

The subject of a further test is P.morganii IFO3445. The test is described as above. The settings on record: Morganella morganii; P.morganii IFO3445; Mueller Hinton agar, 10^6/ml, 37°C for 16 hours; read-out: minimum growth inhibitory concentration (MIC). The method, then: as §1, §2

Molecules are shown by their SMILES. ≈ marks a conversion by molar mass, not a printed value.

Consider `CC(C)(ON=C(C(=O)NC1C(=O)N2C(C(=O)[O-])=C(C[n+]3ccc4cc(O)c(O)cc4c3)CSC12)c1csc(N)n1)C(=O)O` [Comparative Compound B, (6R,7R)-7-[(Z)-2-(2-amino-l,3-thiazol-4-yl)-2-(2-carboxypropyl-2-yloxyimino)acetamide]-3-(6,7-dihydroxy-2-isoquinolinium)methyl-3-cephem-4-carboxylate, reference compound], for which the MIC with P.aeruginosa N-3 was 0.05 µg/mL (≈ 0.0795 µM); in the test on P.aeruginosa NO. 97, 0.025 µg/mL (≈ 0.0398 µM); in the test on P.aeruginosa 0-11 it was 0.05 µg/mL (≈ 0.0795 µM); with P.aeruginosa ATCC27577, 5 ng/mL (≈ 0.00795 µM); in the test with P.aeruginosa ATCC27318, 0.05 µg/mL (≈ 0.0795 µM); with P.aeruginosa 88, 0.025 µg/mL (≈ 0.0398 µM). Also, the MIC in the test on P.aeruginosa Tid53 came to 0.05 µg/mL (≈ 0.0795 µM); in the test with P.aeruginosa 64, 0.05 µg/mL (≈ 0.0795 µM); with P.aeruginosa N-2, 0.05 µg/mL (≈ 0.0795 µM); in the test with P.aeruginosa N-26, 0.1 µg/mL (≈ 0.159 µM); in the test with S.enteritidis G14 it was 5 ng/mL (≈ 0.00795 µM); in the test on S.marcescens IAM1184, 5 ng/mL (≈ 0.00795 µM). For the same compound, the MIC came out at 0.025 µg/mL (≈ 0.0398 µM) with P.aeruginosa PAD1; 0.025 µg/mL (≈ 0.0398 µM) in the test with P.aeruginosa IFO3445; 5 ng/mL (≈ 0.00795 µM) with E.cloacae 963; 12.5 µg/mL (≈ 19.9 µM) with S.aureus 209p NIHJ JC1; 5 ng/mL (≈ 0.00795 µM) in the test on K.pneumoniae PCI602; 1.6 µg/mL (≈ 2.55 µM) in the test with S.pyogenes Cook. The MIC in the test with M.luteus ATCC9341 stood at 3.1 µg/mL (≈ 4.93 µM); in the test with P.aeruginosa NCTC1049 it was 12.5 ng/mL (≈ 0.0199 µM); with P.vulgalis OX-11, 5 ng/mL (≈ 0.00795 µM); in the test on S.typhi 901, 5 ng/mL (≈ 0.00795 µM); in the test with S. aureus Terajima it was 3.1 µg/mL (≈ 4.93 µM); with P.morganii IFO3445 it was 5 ng/mL (≈ 0.00795 µM).
Regarding `CC(C)(ON=C(C(=O)NC1C(=O)N2C(C(=O)[O-])=C(C[n+]3ccc4cc(O)c(O)cc4c3)CSC12)c1nsc(N)n1)C(=O)O` [Compound III, (6R,7R)-7-[(Z)-2-(5-amino-1,2,4-thiadiazol-3-yl)-2-(2-carboxypropyl-2-yloxyimino)acetamide]-3-(6,7-dihydroxy-2-isoquinolinium)methyl-3-ce phem-4-carboxylate], the MIC came to 0.0125 µg/mL (≈ 0.0199 µM) with P.aeruginosa N-3; 0.005 µg/mL (≈ 0.00794 µM) with P.aeruginosa NO. 97; 0.005 µg/mL (≈ 0.00794 µM) in the test on P.aeruginosa 0-11; 5 ng/mL (≈ 0.00794 µM) with P.aeruginosa ATCC27577; 0.0125 µg/mL (≈ 0.0199 µM) in the test on P.aeruginosa ATCC27318; 0.0125 µg/mL (≈ 0.0199 µM) in the test with P.aeruginosa 88. In addition, the MIC was found to be 0.005 µg/mL (≈ 0.00794 µM) with P.aeruginosa Tid53; 0.0125 µg/mL (≈ 0.0199 µM) in the test with P.aeruginosa 64; 0.025 µg/mL (≈ 0.0397 µM) with P.aeruginosa N-2; 0.0125 µg/mL (≈ 0.0199 µM) in the test with P.aeruginosa N-26; 5 ng/mL (≈ 0.00794 µM) in the test with S.enteritidis G14; 5 ng/mL (≈ 0.00794 µM) in the test on S.marcescens IAM1184. Moreover, the MIC in the test with P.aeruginosa PAD1 was determined as 0.0125 µg/mL (≈ 0.0199 µM); with P.aeruginosa IFO3445, 0.0125 µg/mL (≈ 0.0199 µM); with E.cloacae 963, 5 ng/mL (≈ 0.00794 µM); in the test with S.aureus 209p NIHJ JC1 it was 12.5 µg/mL (≈ 19.9 µM); in the test with K.pneumoniae PCI602, 5 ng/mL (≈ 0.00794 µM); in the test on S.pyogenes Cook, 1.6 µg/mL (≈ 2.54 µM). Also, the MIC in the test on M.luteus ATCC9341 was 3.1 µg/mL (≈ 4.92 µM); with P.aeruginosa NCTC1049, 5 ng/mL (≈ 0.00794 µM); in the test on P.vulgalis OX-11, 5 ng/mL (≈ 0.00794 µM); with S.typhi 901, 5 ng/mL (≈ 0.00794 µM); in the test on S. aureus Terajima it was 3.1 µg/mL (≈ 4.92 µM); in the test with P.morganii IFO3445, 5 ng/mL (≈ 0.00794 µM).
